In publication PMC4862498, “PI4 Kinase Is a Prophylactic but Not Radical Curative Target in Plasmodium vivax-Type Malaria Parasites” (Antimicrobial Agents and Chemotherapy, 2016):
Entries after “also recorded” stand apart in the source; their conditions may differ.

Tests used:
[1] = Clinical chemistry, hematology, weight and clinical observation of treated monkeys; format: in vivo, rhesus macaques (Macaca mulatta); settings: rhesus monkey, in vivo
Procedure: Monkeys were treated according to the schedule shown in Table 1 (stratification of treatment groups is given in the supplemental material). During treatment, monkeys were weighed daily and received the compound via gavage, followed by gastric feeding (weight change during treatment is shown in Table S6 in the supplemental material). Monkeys in the prophylaxis groups (groups 691-proph and 599-proph) were treated ∼20 min after the i.v. sporozoite injection. The other monkeys were treated when all the monkeys in the experiment (except those in the prophylaxis group) were blood-stage patent (at day 11 p.i.). To kill the blood-stage parasites, all monkeys received a 5-day treatment of 7.5 mg/kg of body weight of chloroquine (CQ) (intramuscular [i.m.] injection), during compound dosing. KDU691 was formulated in 0.5% methylcellulose and 0.5% Tween 80 in water. LMV599 was formulated as a solid dispersion in a solution containing 5.6% (wt/wt) Tween 80–44.4% hydroxypropyl methylcellulose (HPMC) E3–38.9% Soluplus–11.1% vitamin E D-alphatocopheryl polyethylene glycol 1000 succinate (TPGS).
Blood samples were collected for clinical evaluation and pharmacokinetic (PK) analysis (see Table S2 in the supplemental material).
When the first relapse was observed, monkeys of the KDU691 experiment were radically cured with primaquine (PQ)/CQ (oral administration of 1.8 mg/kg PQ for 14 days together with i.m. administration of 7.5 mg/kg CQ for the first five days of PQ treatment) to cure both blood stage and liver stage parasites, […]
The monkeys of the LMV599/PQ experiment were cured with a five day CQ treatment (7.5 mg/kg, i.m. administration) at the first relapse and were monitored until the second relapse after which they were cured with CQ (7.5 mg/kg, intramuscular (i.m.) for five days) plus PQ (1.8 mg/kg for 14 days).
Table S2: PK and clinical blood sampling schedule in monkeys.
Groups are named 691 for KDU691 and 599 for LMV599 treatment groups, followed by -C for control group (no compound), -proph for prophylactic treatment (treated immediately after infection), and -RC for radical cure treatment (treated when blood stage positive). […]
the face and chest areas were very yellow. Therefore the 691-RC group (treated from d11 to d15 pi) was monitored by daily clinical chemistry analysis during dosing to be compared with untreated 691-C. […]
sampling of the single dose prophylaxis group at day 0, 1, 7 and 100. The lack of aberrant clinical […]
as radical cure compound, during which also clinical sampling was performed daily. a: only clinical chemistry samples were taken. *: t = 24 sample was taken only on the 1st day of dosing.
Group name Clin. chem PK sampling PK time points
Hematology (h post dosing)
691-proph 1st and 5th day of dosing t = 0, 1, 4, 6 and 24*
691-RC Dailya 1st and 5th day of dosing t = 0, 1, 4, 6 and 24* […]
599-RC Daily 1st and 4th day of dosing t = 0, 1, 2, 4 and 24
Clinical chemistry and hematology
For the clinical analysis serum from 1 mL of clotted blood was analysed using the Cobas Integra 400 plus fully automated chemistry analyser. The following clinical parameters were determined: Alkaline phosphatase; Alanine Aminotransferase; Albumin: Aspartate aminotransfeasr; Bilirubin; Calcium; Cholesterol; Creatine kinase; Creatinine; C-reactive protein: Iron; Phosphate; Gamma-glutamyl transpeptidase; Glucose; Hemoglobin; Potassium; Lactate dehydrogenase; Sodium; Total protein; Urea Haematological parameters were determined from 1 mL EDTA-blood with a Sysmex XT-2000iV automated system. The following hematological parameters were determined: Basophilic granulocytes; Eosinophilic granulocytes; Erythrocytes; Hematocrit; Leucocytes; Leucocyte differentiation; Lymphocytes; Mean corpusculair hemoglobin; Mean corpusculair hemoglobin concentration; Mean corpusculair volume; Neutrophilic granulocytes; Red cell distribution width; Thrombocytes […]
Liver tissue samples were excised, dipped in PBS, gently blotted with absorbent paper, dried, weighed and stored at -20 °C until further analysis. […]

[2] = tested on: P. cynomolgi sporozoite-infected rhesus macaques; assay: Causal prophylaxis in P. cynomolgi sporozoite-infected rhesus macaques; format: in vivo, Plasmodium cynomolgi; settings: 20 mg/kg oral for 5 days from day 0, 4 monkeys, follow-up until day 102 p.i.
Procedure: Sporozoites were harvested from P. cynomolgi-infected mosquitoes, washed with phosphate-buffered saline (PBS), and diluted to 100,000 sporozoites (spz)/ml in PBS. One-milliliter aliquots of sporozoites were prepared and injected into monkeys via intravenous (i.v.) injection.
Monkeys were treated according to the schedule shown in Table 1 (stratification of treatment groups is given in the supplemental material). During treatment, monkeys were weighed daily and received the compound via gavage, followed by gastric feeding (weight change during treatment is shown in Table S6 in the supplemental material). […]
Parasitemia was closely monitored by thin-film analysis. […] Thin-film slides were stained with 20% Giemsa stain, and at least 50 fields (±20,000 erythrocytes [RBCs]) were analyzed with a bright-field microscope (×1,200 magnification). […] From day 23 p.i., monkeys were monitored daily for relapses. The KDU691 radical-cure (group 691-RC) treatment and control groups were monitored until the first relapse. The LMV599 control (group 599-C), radical-cure (group 599-RC), and PQ radical-cure (group PQ-RC) treatment groups were monitored until the second relapse or until day 100 p.i. […]
The prophylaxis groups were monitored daily until day 22 p.i. From day 22 to day 45 p.i., they were monitored three times a week, and from day 45 to day 105 p.i. (100 days after treatment), they were monitored twice a week. […]

[3] = tested on: Plasmodium berghei luciferase sporozoites; set-up: method as in PMID 25147620; settings: single dose of 7.5 mg/kg after sporozoite infection; cited from earlier work

Question: Which results are given for `CNC(=O)c1ccc(-c2cnc3cnc(C(=O)N(C)c4ccc(Cl)cc4)cn23)cc1` [KDU691]?
Answer: weight loss, % of the initial weight [1]: 3.5%; causal prophylactic outcome (blood-stage parasitemia) [2]: fully protective; also recorded: completely effective; also recorded: eradicated all liver-stage parasites, including hypnozoites; causal prophylactic protection in mice [3]: complete protection
